Columns and labels:
Type in all cases: biochemical
JAK1 = molecular target: T1, JAK1 (Homo sapiens, UniProt P23458); test: JAK1 inhibition (Table 4); conditions: read-out: JAK1 Ki
T1 construct: made in house; host or cells: SF9 insect cells (baculovirus)

TYK2 = molecular target: T2, TYK2 (Homo sapiens, UniProt P29597); test: TYK2 inhibition (Table 4)
T2 construct: made in house; host or cells: SF9 insect cells (baculovirus)
T2 sequence (P29597 873-1187): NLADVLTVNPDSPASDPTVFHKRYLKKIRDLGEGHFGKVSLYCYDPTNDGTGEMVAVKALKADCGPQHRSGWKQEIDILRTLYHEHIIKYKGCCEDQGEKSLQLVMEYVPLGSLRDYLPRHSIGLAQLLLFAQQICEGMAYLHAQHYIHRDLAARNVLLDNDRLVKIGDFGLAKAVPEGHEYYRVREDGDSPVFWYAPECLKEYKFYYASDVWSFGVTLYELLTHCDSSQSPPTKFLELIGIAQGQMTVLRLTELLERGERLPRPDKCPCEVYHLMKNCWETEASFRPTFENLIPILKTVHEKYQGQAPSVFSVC

JAK3 = molecular target: T3, JAK3 (Homo sapiens, UniProt P52333); test: JAK3 inhibition (Table 4); conditions: read-out: JAK3 Ki
T3 construct: made in house; host or cells: SF9 insect cells (baculovirus)
T3 sequence (P52333 783-1124): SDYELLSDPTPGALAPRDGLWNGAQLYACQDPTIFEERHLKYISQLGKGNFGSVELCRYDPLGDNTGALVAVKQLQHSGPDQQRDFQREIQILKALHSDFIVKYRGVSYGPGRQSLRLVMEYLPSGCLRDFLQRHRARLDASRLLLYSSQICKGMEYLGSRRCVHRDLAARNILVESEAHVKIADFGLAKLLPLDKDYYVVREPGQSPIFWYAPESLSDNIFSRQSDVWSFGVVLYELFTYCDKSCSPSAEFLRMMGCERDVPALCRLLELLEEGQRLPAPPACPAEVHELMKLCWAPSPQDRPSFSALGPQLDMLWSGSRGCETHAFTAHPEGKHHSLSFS

JAK2 = molecular target: T4, JAK2 (Homo sapiens, UniProt O60674); test: JAK2 inhibition (Table 4); conditions: read-out: JAK2 Ki
T4 construct: made in house; host or cells: SF9 insect cells (baculovirus)
T4 sequence (O60674 812-1132): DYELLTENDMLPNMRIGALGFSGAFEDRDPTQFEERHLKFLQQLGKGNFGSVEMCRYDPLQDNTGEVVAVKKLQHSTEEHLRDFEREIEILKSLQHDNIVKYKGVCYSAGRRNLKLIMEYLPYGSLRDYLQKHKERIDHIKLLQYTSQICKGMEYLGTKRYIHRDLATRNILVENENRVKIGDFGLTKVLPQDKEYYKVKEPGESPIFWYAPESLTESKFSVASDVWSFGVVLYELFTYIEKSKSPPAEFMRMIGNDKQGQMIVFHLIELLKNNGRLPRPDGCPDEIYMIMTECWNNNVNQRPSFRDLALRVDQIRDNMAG

T1 sequence (P23458 852-1154): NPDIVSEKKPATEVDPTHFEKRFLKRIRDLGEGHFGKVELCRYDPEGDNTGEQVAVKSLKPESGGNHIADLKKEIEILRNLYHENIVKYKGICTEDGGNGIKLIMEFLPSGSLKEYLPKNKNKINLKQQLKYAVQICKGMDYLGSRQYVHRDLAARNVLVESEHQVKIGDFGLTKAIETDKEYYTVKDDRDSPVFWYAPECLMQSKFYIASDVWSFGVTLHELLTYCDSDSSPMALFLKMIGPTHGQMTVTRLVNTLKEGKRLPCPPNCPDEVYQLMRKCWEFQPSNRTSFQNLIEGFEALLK

| Ki (JAK1) [nM] | Ki (TYK2) [nM] | Ki (JAK3) [nM] | Ki (JAK2) [nM] | SMILES |
| --- | --- | --- | --- | --- |
| 10.3 | 102 | 24.2 | 19.2 | N#CCCN1CCC(n2c(Cc3cccnc3)nc3cnc4[nH]ccc4c32)CC1 [Example 403, 3-[4-(2-Pyridin-3-ylmethyl-6H-1,3,5,6-tetraaza-as-indacen-1-yl)-piperidin-1-yl]-propionitrile] |
| 5.49 | 101 | 22.2 | 28.2 | CCN1CCC(n2c(CNS(C)(=O)=O)nc3cnc4[nH]ccc4c32)C(F)(F)C1 (stereo not shown) [Example 915, N-[1-(1-Ethyl-3,3-difluoro-piperidin-4-yl)-1,6-dihydro-1,3,5,6-tetraaza-as-indacen-2-ylmethyl]-methanesulfonamide] |
| 162 | 1750 | 308 | 259 | CC(C)(C)COCc1nc2cnc3[nH]ccc3c2n1C1CCN(CCC#N)CC1 [Example 683, 3-{4-[2-(2,2-Dimethyl-propoxymethyl)-6H-1,2,3,5,6-tetraaza-as-indacen-1-yl]-piperidin-1-yl}-propionitrile] |
| 216 | 3450 | 2040 | 269 | CC1(C(=O)N2CCC(n3cnc4cnc5[nH]ccc5c43)CC2)CCCN1 (racemic) [Example 251] |
| 11.4 | 85.6 | 26.5 | 13.6 | c1cc(N2CCC[C@@H](n3cnc4cnc5[nH]ccc5c43)C2)ncn1 [Example 14, 1-((R)-1-Pyrimidin-4-yl-piperidin-3-yl)-1,6-dihydro-1,2,3,5,6-tetraaza-as-indacene] |
| 0.46 | 4.67 | 15.9 | 1.08 | COc1nc2cnc3[nH]ccc3c2n1C1CCN(CCC#N)CC1 [Example 655, 3-[4-(2-Methoxy-6H-1,2,3,5,6-tetraaza-as-indacen-1-yl)-piperidin-1-yl]-propionitrile] |
| 286 | 3040 | 2970 | 1470 | C[C@H](O)c1nc2cnc3[nH]ccc3c2n1[C@@H]1CCCN(C(=O)CC(F)(F)F)C1 [Example 782, 3,3,3-Trifluoro-1-{(R)-3-[2-((S)-1-hydroxy-ethyl)-6H-1,3,5,6-tetraaza-as-indacen-1-yl]-piperidin-1-yl}-propan-1-one] |
| 46.3 | 317 | 32.9 | 63.3 | COC[C@H](C)n1c(C)nc2cnc3[nH]ccc3c21 [Example 424, 1-((S)-2-Methoxy-1-methyl-ethyl)-2-methyl-1,6-dihydro-1,3,5,6-tetraaza-as-indacene] |
| 12.5 | 68.9 | 38.6 | 15.1 | O=S(=O)(C1CC1)N1CCC[C@@H](n2cnc3cnc4[nH]ccc4c32)C1 [Example 70, (R)-1-(1-Cyclopropanesulfonyl-piperidin-3-yl]-1,6-dihydro-1,3,5,6-tetraaza-as-indacene] |
| 126 | 622 | 2280 | 389 | O=C1CCC(n2cnc3cnc4[nH]ccc4c32)CN1 (racemic) [Example 130, 5-(6H-1,2,3,5,6-Tetraaza-as-indacen-1-yl)-piperidin-2-one] |
| 3.91 | 20.8 | 132 | 51.1 | CN(C)CC(=O)NCCc1nc2cnc3[nH]ccc3c2n1C1CCCCC1 [Example 510, N-[2-(1-Cyclohexyl-1,6-dihydro-1,3,5,6-tetraaza-as-indacen-2-yl)-ethyl]-2-dimethylamino-acetamide] |
| 1.8 | 11.8 | 13.6 | 43.7 | O[C@@H](c1nc2cnc3[nH]ccc3c2n1C1CCCCC1)C(F)(F)F [Example 878, (S)-1-(1-Cyclohexyl-1,6-dihydro-1,3,5,6-tetraaza-as-indacen-2-yl)-2,2,2-trifluoro-ethanol] |
| 8.44 | 330 | 393 | 23.7 | O=C(N[C@H]1CC[C@H](n2cnc3cnc4[nH]ccc4c32)CC1)OC1CCNCC1 [Example 141, Trans[4-(6H-1,2,3,5,6-Tetraaza-as-indacen-1-yl)-cyclohexyl]-carbamic acid piperidin-4-yl ester] |
| 7.28 | 488 | 12.2 | 25 | c1ccc(CN2CCC(n3c(Cn4cccn4)nc4cnc5[nH]ccc5c43)CC2)cc1 [Example 201, 1-(1-Benzyl-piperidin-4-yl)-2-pyrazol-1-ylmethyl-1,6-dihydro-1,2,3,5,6-tetraaza-as-indacene] |
| 76.4 | 448 | 1060 | 260 | C[C@@H](O)c1nc2cnc3[nH]ccc3c2n1[C@@H]1CCCN(C(=O)C2CCC2)C1 [Example 792, Cyclobutyl-{(R)-3-[2-((R)-1-hydroxy-ethyl)-6H-1,3,5,6-tetraaza-as-indacen-1-yl]-piperidin-1-yl}-methanone] |
| 12.5 | 223 | 278 | 42.2 | COCCN(C)C(=O)NC1CCC(n2cnc3cnc4[nH]ccc4c32)CC1 (stereo not shown) [Example 763, 1-(2-Methoxy-ethyl)-1-methyl-3-[4-(6H-1,3,5,6-tetraaza-as-indacen-1-yl)-cyclohexyl]-urea] |
| 43.2 | 373 | 119 | 190 | CC(C)NC(=O)Cc1nc2cnc3[nH]ccc3c2n1C1CCCOC1 (racemic) [Example 963, N-Isopropyl-2-[1-(tetrahydro-pyran-3-yl)-1,6-dihydro-1,3,5,6-tetraaza-as-indacen-2-yl]-acetamide] |
| 4.96 | 130 | 136 | 14.5 | O=C(N[C@H]1CC[C@H](n2cnc3cnc4[nH]ccc4c32)CC1)OC1CCCC1 [Example 347, [4-(6H-1,3,5,6-Tetraaza-as-indacen-1-yl)-cyclohexyl]-carbamic acid cyclopentyl ester] |
| 2.55 | 21.6 | 65.5 | 23.6 | O=S(=O)(CCC(F)(F)F)NCCc1nc2cnc3[nH]ccc3c2n1C1CCCCC1 [Example 509, 3,3,3-Trifluoro-propane-1-sulfonic acid [2-(1-cyclohexyl-1,6-dihydro-1,3,5,6-tetraaza-as-indacen-2-yl)-ethyl]-amide] |
| 52.9 | 224 | 509 | 455 | C[C@@H](O)c1nc2cnc3[nH]ccc3c2n1[C@H]1CC[C@@H](N2CCC(F)(F)CC2)CC1 [Example 612, Cis (R)-1-{1-[4-(4,4-difluoro-piperidin-1-yl)-cyclohexyl]-1,6-dihydro-1,2,3,5,6-tetraaza-as-indacen-2-yl}-ethanol] |
| 7.58 | 129 | 27.5 | 18 | N#Cc1cccc(CN2CCC[C@@H](n3cnc4cnc5[nH]ccc5c43)C2)c1 [Example 45, 3-[(R)-3-(6H-1,3,5,6-Tetraaza-as-indacen-1-yl)-piperidin-1-ylmethyl]benzonitrile] |

| SMILES | Ki (JAK1) [nM] | Ki (TYK2) [nM] | Ki (JAK3) [nM] | Ki (JAK2) [nM] |
| --- | --- | --- | --- | --- |
| O=C(Cc1nc2cnc3[nH]ccc3c2n1C1CCCOC1)N1CCN(CCO)CC1 (racemic) [Example 976, 1-[4-(2-Hydroxy-ethyl)-piperazin-1-yl]-2-[1-(tetrahydro-pyran-3-yl)-1,6-dihydro-1,3,5,6-tetraaza-as-indacen-2-yl]-ethanone] | 32.1 | 299 | 208 | 405 |

— US8461328B2, “Tricyclic heterocyclic compounds, compositions and methods of use thereof” (Genentech, Inc., priority 2010, dated 2013)
